Reference: patent US20120288712A1, “ESCITALOPRAM AND SOLID PHARMACEUTICAL COMPOSITION COMPRISING THE SAME” (ratiopharm GmbH, priority 2006, published 2012)
Structures can show the parent of a compound that is named as a salt.

Assay: Particle size distribution by laser diffraction (Sympatec Helos)
Format: physicochemical
Conditions: laser diffraction at 1 bar dispersive pressure
Description: As used herein, “particle size distribution” means the cumulative volume size distribution of equivalent spherical diameters as determined by laser diffraction at 1 bar dispersive pressure in a Sympatec Helos equipment. “Median particle size”, correspondingly, means the median of said particle size distribution. When the term “Escitalopram” is used it covers Escitalopram as well as a pharmaceutically acceptable salt and/or a pharmaceutically acceptable solvate thereof.

CN(C)CCC[C@@]1(c2ccc(F)cc2)OCc2cc(C#N)ccc21 [Escitalopram oxalate, (S)-1-[3-(dimethylamino)propyl]-1-(4-fluorophenyl)-1,3-dihydro-5-isobenzofurancarbonitrile]
median particle size: about 6.65 μm | ratio between the median particle size and the particle size at the 95% quantile: about 0.61
